Here are results for two compounds from patent US20190216824A1, “Particles, Compositions and Methods for Ophthalmic and/or Other Applications” (priority 2016, published 2019).

The nature of series [1]: XRPD crystal form before and after milling (Example 8). The series is classed as physicochemical. Conditions: input vs milled with F127. The source says: Particles were isolated by centrifugation, then resuspended in H2O and then recentrifuged. The wet sample was resuspended in H2O and deposited thinly and evenly onto a flat zero background sample holder (Rigaku 906165). The sample was allowed to air dry.
Milligram amounts were packed as an evenly thin layer of solid onto a zero background sample holder (Rigaku 906165).
X-ray Powder Diffraction (XRPD) patterns were obtained using a Rigaku MiniFlex 600 benchtop x-ray diffractometer equipped with a Cu X-ray tube (Cu/Kα=1.54059 Å), a six-position sample changer and a D/teX Ultra detector. […] Diffraction patterns were viewed and analyzed using PDXL analysis software provided by the instrument manufacturer. A reference standard silicon powder (NIST Standard Reference Material 640d) generated a peak at 28.43° and 28.45° two theta when samples were prepared as suspension in H2O (to simulate Procedure A) and Procedure B, respectively.
All input crystalline forms were arbitrarily designated as “A” forms. New forms that emerged after milling, if any, were sequentially designated as “B”, “C”, etc.

The nature of series [2]: DLS size and PDI of cortisone and hydrocortisone milled with F127 (Example 7). Particulars: suspension milled with 5% F127 in PBS pH 7.1, 25 hours. The series is classed as physicochemical. As for the experimental part:
A milling procedure was employed in which aqueous dispersions containing coarse compound particles were individually milled with F127 at near-neutral pH buffer using a grinding medium. Briefly, a slurry containing 5% of compound and 5% F127 in PBS (0.0067 M PO43), pH 7.1 was added to an equal bulk volume of 1-mm ceria-stabilized zirconium oxide beads in a glass vial (e.g., 2 mL of slurry per 2 mL of beads). A magnetic stir bar was used to agitate the beads, stirring at approximately 500 rpm at ambient conditions for 25 hours.
The milled suspensions were subjected to dynamic light scattering (DLS) measurements to determine particle size and polydispersity index (PDI, a measure of the width of the particle size distribution). The samples for DLS measurements were buffered with HyClone™ PBS (phosphate-buffered saline) to produce isotonic samples that have a physiologically relevant pH.

Consider `C[C@]12CCC(=O)C=C1CC[C@@H]1[C@@H]2C(=O)C[C@@]2(C)[C@H]1CC[C@]2(O)C(=O)CO` [Compound 1, Cortisone], for which the “Crystal form change after milling of "A" forms?” value in series [1] is “No”. In series [2], the PDI stood at 0.074 and the “Size (Z-average)” value is recorded as 225 nm.

Regarding `C[C@]12CCC(=O)C=C1CC[C@@H]1[C@@H]2[C@@H](O)C[C@@]2(C)[C@H]1CC[C@]2(O)C(=O)CO` [Compound 2, hydrocortisone], the “Crystal form change after milling of "A" forms?” value in series [1] is “No”. Also, in series [2], the PDI was determined as 0.258 and the “Size (Z-average)” value stood at 357 nm.
